Target: GR complex
Assay: [35S]TBPS binding assay (inhibition of [35S]TBPS binding, cerebral cortex P2 homogenate)
Set-up: species or system rat
Conditions: for IC50: 2 nM [35S]TBPS, rat cerebral cortex P2 homogenate; for IMAX: maximum inhibition of [35S]TBPS binding
Method: We performed several experiments to determine the nature of the modulation of [^35S]TBPS as affected by the compounds of the invention.
These procedures were performed as follows:
Brains from male Sprague-Dawley rats were removed immediately following sacrifice and the cerebral cortices dissected over ice. […] Briefly, the cortices were gently homogenized in 0.32 M sucrose followed by centrifugation at 1000 x g for 10 minutes. The supernatant was collected and centrifuged at 9000 x g for 20 minutes. The resultant P2 pellet was suspended as a 10% (original wet weight/volume) suspension in 50 mM Na/K phosphate buffer (pH 7.4) 200 mM NaCl to form the homogenate.
One hundred microliter […] aliquots of the P2 homogenate (0.5 milligrams (mg) protein) were incubated with 2 nanomolar (nM) [^35S]TBPS (70-110 curies/millimole; New England Nuclear, Boston, MA) in the presence or absence of the naturally occurring steroids or their synthetic derivatives to be tested. The tested compounds were dissolved in dimethylsulfoxide (Baker Chem. Co., Phillipsbury, NJ) and added to the incubation mixture in 5 µL aliquots. The incubation mixture was brought to a final volume of 1 mL with buffer. Non-specific binding was defined as binding in the presence of […] TBPS. The effect and specificity of GABA (Sigma Chem. Co., St. Louis, MO) was evaluated by performing all assays in the presence of GABA plus (+)bicuculline (Sigma Chem. Co.). maintained at 25°C for 90 minutes (steady state conditions) were terminated by rapid filtration through glass fiber filters (No. 32, Schleicher and Schuell, Keene, NH). Filter-bound radioactivity was quantitated by liquid scintillation spectrophotometry.
Various compounds were screened to determine their potential as modulators of [^35S]TBPS binding in vitro. These assays were performed in accordance with the above discussed procedures. […] It is an indication of a compound's in vitro potency. Maximum inhibition is an indication of a compound's in vitro efficacy.

3β-(4'-Aminophenyl)ethynyl-3β-hydroxy-5β-20-one
IC50: 22500 nM
IMAX: 103%

CC(=O)[C@H]1CC[C@H]2[C@@H]3CC[C@H]4C[C@@](O)(C#CCC(C)O)CC[C@]4(C)[C@H]3CC[C@]12C (mixture of isomers) [3β-[4'(R/S)-hydroxy-1'-pentynyl]-3α-hydroxy-5α-pregnan-20-one]
IC50: 178 nM
IMAX: 101%

C[C@]12CC[C@@H](O)C[C@H]1CC[C@@H]1[C@@H]2CC[C@]2(C)[C@@H](C(=O)Cn3cnc([N+](=O)[O-])c3)CC[C@@H]12 [3a-hydroxy-21-[1H-(4-nitro)imidazol-1-yl)-5β-pregnan-20-one]
IC50: 267 nM
IMAX: 71%

CC12CC(N3CCOCC3)C(O)CC1CCC1C2CCC2(C)C(C(=O)Cn3cncn3)CCC12 (stereo not drawn) [3α-Hydroxy-2β-morpholinyl-21-[1'2'4'-triazolyl)]-5α-pregnan-20-one]
IC50: 1550 nM
IMAX: 97%

CC(=O)[C@H]1CC[C@H]2[C@@H]3CC[C@@H]4C[C@@](O)(CCc5ccccc5)CC[C@]4(C)[C@H]3CC[C@]12C [3α-Hydroxy-3β-(2'-phenylethyl)-5β-pregnan-20-one]
IC50: 135 nM
IMAX: 98%

CC(=O)C#C[C@@]1(O)CC[C@@]2(C)[C@H](CC[C@@H]3[C@@H]2CC[C@]2(C)[C@@H](C(C)=O)CC[C@@H]32)C1 [3α-Hydroxy-3β-(3'-oxobutynyl)-5β-pregnan-20-one]
IC50: 2690 nM
IMAX: 107%

CC(=O)C1CCC2C3CCC4CC(O)(C#CC=O)CCC4(C)C3CCC12C (stereo not drawn) [3α-Hydroxy-3β-(3'-oxopropynyl)-5β-pregnan-20-one]
IC50: 1720 nM
IMAX: 76%

CC(=O)[C@H]1CC[C@H]2[C@@H]3CC[C@@H]4C[C@@](O)(C#CCc5ccccc5)CC[C@]4(C)[C@H]3CC[C@]12C [3α-Hydroxy-3β-(3'-phenyl-1'-propynyl)-5β-pregnan-20-one]
IC50: 103 nM
IMAX: 95%

CC(=O)[C@H]1CC[C@H]2[C@@H]3CC[C@@H]4C[C@@](O)(CCCc5ccccc5)CC[C@]4(C)[C@H]3CC[C@]12C [3α-Hydroxy-3β-(3'-phenylpropyl)-5β-pregnan-20-one]
IC50: 173 nM
IMAX: 92%

CC12CCC(O)(C#CCO)CC1CCC1C2CCC2(C)C(C(=O)Cn3nccn3)CCC12 (stereo not drawn) [3α-Hydroxy-3β-(3-hydroxypropyn-1-yl)-21-(1,2,3-triazol-2-yl)-5β-pregnan-20-one]
IC50: 430 nM
IMAX: 107%

COCC#C[C@@]1(O)CC[C@@]2(C)[C@H](CC[C@@H]3[C@@H]2CC[C@]2(C)[C@@H](C(C)=O)CC[C@@H]32)C1 [3α-Hydroxy-3β-(3-methoxy-1-propynyl)-5β-pregnan-20-one]
IMAX: 105%

CC(=O)[C@H]1CC[C@H]2[C@@H]3CC[C@@H]4C[C@@](O)(C#Cc5cccnc5)CC[C@]4(C)[C@H]3CC[C@]12C [3α-Hydroxy-3β-(3-pyridyl)ethynyl-5β-pregnan-20-one]
IC50: 138 nM
IMAX: 100%

C[C@]12CC[C@H]3[C@@H](CC[C@@H]4C[C@@](O)(C#CCCO)CC[C@@H]43)[C@@H]1CC[C@@H]2C(=O)Cn1ccnc1 [3α-Hydroxy-3β-(4-hydroxybutyn-1-yl)-21-(1-imidazolyl)-5β-19-norpregnan-20-one]
IC50: 98 nM
IMAX: 98%

C[C@]12CC[C@](O)(C#CCCO)C[C@H]1CC[C@@H]1[C@@H]2CC[C@]2(C)[C@@H](C(=O)Cn3ccnc3)CC[C@@H]12 [3α-Hydroxy-3β-(4-hydroxybutyn-1-yl)-21-(1-imidazolyl)-5β-pregnan-20-one]
IC50: 54 nM
IMAX: 93%

CC(=O)[C@H]1CC[C@H]2[C@@H]3CC[C@@H]4C[C@@](O)(C#Cc5ccncc5)CC[C@]4(C)[C@H]3CC[C@]12C [3α-Hydroxy-3β-(4-pyridyl)ethynyl-5β-pregnan-20-one]
IC50: 149 nM
IMAX: 103%

CC(=O)C1CCC2C3CCC4CC(O)(C#CCn5cncn5)CCC4(C)C3CCC12C (stereo not drawn) [3α-Hydroxy-3β-[3'-(1H-1,2,4,-triazol-1yl)-1'-propynyl]-5β-pregnan-20-one]
IC50: 843 nM
IMAX: 99%

CC(=O)[C@H]1CC[C@H]2[C@@H]3CC[C@@H]4C[C@@](O)(C#CCn5ccnc5)CC[C@]4(C)[C@H]3CC[C@]12C [3α-Hydroxy-3β-[3'-(N-imidazolyl)-1'-propynyl)-5β-pregnan-20-one]
IC50: 2720 nM
IMAX: 107%

CC(=O)C#C[C@@]1(O)CC[C@@]2(C)[C@@H](CC[C@@H]3[C@@H]2CC[C@]2(C)[C@@H](C(C)=O)CC[C@@H]32)C1 [3α-Hydroxy-3β-[3'-oxobutynyl]-5α-pregnan-20-one]
IC50: 6510 nM
IMAX: 104%

CC(=O)C1CCC2C3CCC4CC(O)(C#CCn5nccn5)CCC4(C)C3CCC12C (stereo not drawn) [3α-Hydroxy-3β-[3-(2'H-1,2,3-triazol-2'-yl)-1-propynyl]-5β-pregnan-20-one]
IC50: 66 nM
IMAX: 98%

CC(=O)CCC#C[C@@]1(O)CC[C@@]2(C)[C@H](CC[C@@H]3[C@@H]2CC[C@]2(C)[C@@H](C(C)=O)CC[C@@H]32)C1 [3α-Hydroxy-3β-[5-oxo-1-hexynyl]-5β-pregnan-20-one]
IC50: 118 nM
IMAX: 101%

CC(=O)[C@H]1CC[C@H]2[C@@H]3CC[C@@H]4C[C@@](O)(c5ccccc5)CC[C@]4(C)[C@H]3CC[C@]12C [3α-Hydroxy-3β-phenyl-5β-pregnan-20-one, 3α-hydroxy-3β-phenyl-5β-pregnan-20-one]
IC50: 382 nM
IMAX: 86%

C[C@]12CC[C@@H](O)C[C@H]1CC[C@@H]1[C@@H]2CC[C@]2(C)[C@@H](C(=O)Cn3cncn3)CC[C@@H]12 [3α-Hydroxy-21-(1',2',4'-triazol-1-yl)-5β-pregnan-20-one]
IMAX: 60%

C[C@]12CC[C@@H](O)C[C@H]1CC[C@@H]1[C@@H]2CC[C@]2(C)[C@@H](C(=O)Cn3ccnc3)CC[C@@H]12 [3α-Hydroxy-21-(1'-imidazolyl)-5β-pregnan-20-one]
IC50: 73 nM
IMAX: 57%

C[C@]12CC[C@@H](O)C[C@@H]1CC[C@@H]1[C@@H]2CC[C@]2(C)[C@@H](C(=O)Cn3ccc(=O)[nH]c3=O)CC[C@@H]12 [3α-Hydroxy-21-(1'-uracil)-5α-pregnan-20-one]
IC50: 434 nM
IMAX: 90%

C[C@]12CC[C@@H](O)C[C@H]1CC[C@@H]1[C@@H]2CC[C@]2(C)[C@@H](C(=O)Cn3ncnn3)CC[C@@H]12 [3α-Hydroxy-21-(2'H-1,2,3,4-tetrazol-2'-yl)-5β-pregnan-20-one]
IC50: 46 nM
IMAX: 78%

CC12CCC(O)(C#CCO)CC1CCC1C2CCC2(C)C(C(=O)Cn3ccnn3)CCC12 (stereo not drawn) [3α-hydroxy-3β-(3-hydroxypropyn-1-yl)-21-(1,2,3-triazol-1-yl)-5β-pregnan-20-one]
IC50: 1090 nM
IMAX: 101%

CC(=O)OCC(=O)c1ccc(C#C[C@@]2(O)CC[C@@]3(C)[C@H](CC[C@@H]4[C@@H]3CC[C@]3(C)[C@@H](C(C)=O)CC[C@@H]43)C2)cc1 [3α-hydroxy-3β-(4'-acetoxyacetylphenylethynyl)-5β-pregnan-20-one]
IC50: 171 nM
IMAX: 91%

CCOC(=O)c1ccc(C#C[C@@]2(O)CC[C@@]3(C)[C@H](CC[C@@H]4[C@@H]3CC[C@]3(C)[C@@H](C(C)=O)CC[C@@H]43)C2)cc1 [3α-hydroxy-3β-(4'-carboxyphenylethynyl)-5β-pregnan-20-one ethyl ester]
IMAX: 98%
